# Experimental data published in BindingDB's records for patent US20250313563 (The Broad Institute, 2025).
# Where “and” joins values, the source holds several entries; their conditions need not be identical. Equal entries are not always repeated.
# Experiments:
# [1] = biological target: Glycogen synthase kinase-3 alpha (Homo sapiens, UniProt P49840); experiment: TR-FRET Assay
# Method in brief: (§1)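 Compound was preincubated 30 min in assay buffer before the kinase reaction, which was quenched with EDTA. Phosphorylation was detected by TR-FRET after adding a solution of 40 nM streptavidin-d2 and 2 nM Tb-labelled anti-pSer641 antibody.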
# [2] = biological target: Glycogen synthase kinase-3 beta (Homo sapiens, UniProt P49841); experiment: TR-FRET Assay
# Method in brief: as §1
# Chain of Glycogen synthase kinase-3 alpha (P49840 whole entry): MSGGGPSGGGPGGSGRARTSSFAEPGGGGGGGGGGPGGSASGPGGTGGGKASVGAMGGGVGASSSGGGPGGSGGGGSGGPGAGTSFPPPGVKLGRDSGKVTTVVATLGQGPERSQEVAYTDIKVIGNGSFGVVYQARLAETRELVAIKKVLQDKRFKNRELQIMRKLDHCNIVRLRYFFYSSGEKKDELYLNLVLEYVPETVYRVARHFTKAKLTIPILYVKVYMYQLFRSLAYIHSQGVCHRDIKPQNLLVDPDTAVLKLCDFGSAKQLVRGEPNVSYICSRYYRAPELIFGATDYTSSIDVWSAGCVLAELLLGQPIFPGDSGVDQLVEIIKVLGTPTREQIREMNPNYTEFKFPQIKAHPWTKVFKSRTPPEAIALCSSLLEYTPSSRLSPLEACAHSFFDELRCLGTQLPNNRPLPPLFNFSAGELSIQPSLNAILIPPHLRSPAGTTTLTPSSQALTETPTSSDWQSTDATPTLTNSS
# Chain of Glycogen synthase kinase-3 beta (P49841 whole entry): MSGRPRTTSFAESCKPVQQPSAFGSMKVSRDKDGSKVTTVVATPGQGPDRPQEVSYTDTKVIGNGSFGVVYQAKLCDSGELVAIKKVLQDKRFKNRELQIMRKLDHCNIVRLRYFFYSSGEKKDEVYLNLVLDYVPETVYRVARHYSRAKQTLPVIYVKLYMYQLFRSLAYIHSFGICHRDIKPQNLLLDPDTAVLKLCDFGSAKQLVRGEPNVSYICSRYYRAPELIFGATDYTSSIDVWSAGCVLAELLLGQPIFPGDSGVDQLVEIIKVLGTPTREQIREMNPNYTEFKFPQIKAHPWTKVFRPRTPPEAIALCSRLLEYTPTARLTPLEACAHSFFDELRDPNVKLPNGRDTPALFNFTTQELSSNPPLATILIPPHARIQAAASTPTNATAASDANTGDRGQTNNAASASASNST
SMILES,IC50 [1] [nM],IC50 [2]
"CC[C@]1(c2cccc(-c3ccnn3C)c2)C2=CN=NC2NC2=C1C(=O)N[C@](C)(COC)C2 (some centres undefined) [US20250313563, Compound 947908]",1000 to 5000,> 5000 nM
"CC1(C)CC(=O)C2=C(C1)NC1=C(CN=N1)C21CN(Cc2ccccc2)C1 [US20250313563, Compound 929436]",> 5000,> 5000 nM
"CC[C@]1(c2ccccc2)C2=CN=NC2NC2=C1C(=O)[C@@H](C)C[C@H]2C (some centres undefined) [US20250313563, Compound 909219]",> 5000,> 5000 nM
"CC[C@]1(c2cccc(-c3cnn4ccncc34)c2)C2=CN=NC2NC2=C1C(=O)NC(C)(C)C2 (some centres undefined) [US20250313563, Compound 949263]",> 5000,> 5000 nM
"CC1(C)CC(=O)C2=C(C1)NC1N=NC(C(F)(F)F)=C1C21CCCOc2ccccc21 (centres undefined) [US20250313563, Compound 790632]",> 5000,> 5000 nM
"O=C1C[C@]2(CCOC2)CC2=C1C1(CCOCC1)C1=C(N=NC1)N2 [US20250313563, Compound 901476]",100 to 1000,100 to 1000 nM
"CC[C@@]1(c2cccc(C(F)(F)F)c2)C2=CN=NC2NC2=C1C(=O)N(c1cscn1)CC2 (some centres undefined) [US20250313563, Compound 952638]",> 5000,> 5000 nM
"CC[C@@]1(c2cccc(S(=O)(=O)C3CCCCC3)c2)C2=CN=NC2NC2=C1C(=O)CC(C)(C)C2 (some centres undefined) [US20250313563, Compound 943541]",100 to 1000,1000 to 5000 nM
"CC[C@]1(c2cccc(-c3cnnc(C)c3)c2)C2=CN=NC2NC2=C1C(=O)NC(C)(C)C2 (some centres undefined) [US20250313563, Compound 944071]",1000 to 5000,> 5000 nM
"CC1(C)CC(=O)C2=C(C1)NC1N=NC=C1C21CCN(S(=O)(=O)c2cnc3n2CCC3)CC1 (centres undefined) [US20250313563, Compound 947467]",< 100,100 to 1000 nM
"CC[C@@]1(c2cccc(C(F)(F)F)c2)C2=CN=NC2NC2=C1C(=O)N(Cc1ccccc1)CC2 (some centres undefined) [US20250313563, Compound 912006]",> 5000,> 5000 nM
"CCC1(CCc2ccccc2)C2=C(N=NC2)NC2=C1C(=O)CC(C)(C)C2 (centres undefined) [US20250313563, Compound 819563]",1000 to 5000,> 5000 nM
"COCCn1cc(S(=O)(=O)N2CCC3(CC2)C2=C(N=NC2)NC2=C3C(=O)CC(C)(C)C2)cn1 [US20250313563, Compound 947477]",< 100,< 100 nM
"CC[C@]1(c2cccc(-c3ccncc3C(F)(F)F)c2)C2=CN=NC2NC2=C1C(=O)CC(C)(C)C2 (some centres undefined) [US20250313563, Compound 943918]",100 to 1000,1000 to 5000 nM
"CC[C@@]1(c2ccccc2)C2=CN=NC2NC2=C1C(=O)[C@H](F)C(C)(C)C2 (some centres undefined) [US20250313563, Compound 957404]",> 5000,> 5000 nM
"CC[C@@]1(c2cccc(S(=O)(=O)CC3CC3)c2)C2=C(CC(C)(C)NC2=O)NC2N=NC(C(F)(F)F)=C21 (some centres undefined) [US20250313563, Compound 949186]",100 to 1000,100 to 1000 nM
"CCC1(c2cccc(N3CCC[C@@H]3C)c2)C2=CN=NC2NC2=C1C(=O)CC(C)(C)C2 (some centres undefined) [US20250313563, Compound 885188]",100 to 1000,100 to 1000 nM
"COC(=O)C1(c2ccccc2)CC2(C1)C1=C(N=NC1)NC1=C2C(=O)CC(C)(C)C1 (centres undefined) [US20250313563, Compound 942366]",< 100,< 100 nM
"CC[C@]1(c2cccc(C(F)(F)F)c2)C2=CN=NC2NC2=C1C(=O)N(c1cnc(OC)nc1)[C@@H](C)C2 (some centres undefined) [US20250313563, Compound 949352]",100 to 1000,1000 to 5000 nM
"Cc1cc(S(=O)(=O)N2CCC3(CC2)C2=C(N=NC2)NC2=C3C(=O)CC(C)(C)C2)n(C)n1 [US20250313563, Compound 947608]",< 100,< 100 nM
"COc1ccccc1S(=O)(=O)N1CCCC2(CC1)C1=CN=NC1NC1=C2C(=O)CC(C)(C)C1 (centres undefined) [US20250313563, Compound 917142]",< 100,100 to 1000 nM
"CCC1(c2cccc(N(CCOC)C(C)=O)c2)C2=CN=NC2NC2=C1C(=O)CC(C)(C)C2 (centres undefined) [US20250313563, Compound 893306]",< 100,< 100 nM
"CC1(C)CC(=O)C2=C(C1)NC1=C(CN=N1)C21CCN(S(=O)(=O)C2CCCCC2)CC1 [US20250313563, Compound 913128]",< 100,< 100 nM and 100 to 1000 nM
"CCC1(c2cccc(Oc3ncccn3)c2)C2=CN=NC2NC2=C1C(=O)NC(C)(C)C2 (centres undefined) [US20250313563, Compound 948764]",< 100,100 to 1000 nM
"CC[C@]1(c2cccc(C(F)(F)F)c2)C2=C(NC3=NN=CC31)c1ccccc1C2=O (some centres undefined) [US20250313563, Compound 949743]",< 100,< 100 nM and 100 to 1000 nM
"CC[C@@]1(c2cccc(C3=C(C)SN(C)C3)c2)C2=CN=NC2NC2=C1C(=O)NC1(CCCC1)C2 (some centres undefined) [US20250313563, Compound 950255]",100 to 1000,> 5000 nM

SMILES,IC50 [1] [nM],IC50 [2]
"CC(C)(C)CC1=C2C(N=N1)NC1=C(C(=O)CC(C)(C)C1)C21CCc2cccc(F)c21 (centres undefined) [US20250313563, Compound 789583]",100 to 1000,100 to 1000 nM
"CCC1(c2cccc(-c3cc(C)nnc3C)c2)C2=C(CC(C)(C)NC2=O)NC2N=NC(C)=C21 (centres undefined) [US20250313563, Compound 948765]",< 100,< 100 nM
"CCC1(c2cccc(-c3cncn3C)c2)C2=CN=NC2NC2=C1C(=O)CC(C)(C)C2 (centres undefined) [US20250313563, Compound 943533]",< 100,< 100 nM
"COc1ccc(S(=O)(=O)N2CCC3(CC2)C2=C(N=NC2)NC2=C3C(=O)CC(C)(C)C2)cn1 [US20250313563, Compound 945666]",< 100,< 100 nM
"Cc1cnc2c(S(=O)(=O)N3CCC4(CC3)C3=C(N=NC3)NC3=C4C(=O)CC(C)(C)C3)cccc2c1 [US20250313563, Compound 947614]",< 100,< 100 nM
"CCC1(c2cccc(-c3ccnc(OC)c3)c2)C2=CN=NC2NC2=C1C(=O)CC(C)(C)C2 (centres undefined) [US20250313563, Compound 883850]",< 100,100 to 1000 nM
"CC1(C)CC(=O)C2=C(C1)NC1=C(CN=N1)[C@]21C[C@H](n2cccn2)C1 [US20250313563, Compound 884005]",< 100,< 100 nM
"CC[C@@]1(c2cccc(N3CCOCC3)c2)C2=C(CC(C)(C)NC2=O)NC2N=NC(C(F)(F)F)=C21 (some centres undefined) [US20250313563, Compound 949013]",< 100,< 100 nM
"CC1(C)CC(=O)C2=C(C1)NC1=C(CN=N1)C21CN(c2ccncc2)C1 [US20250313563, Compound 912077]",> 5000,> 5000 nM
"CC[C@@]1(c2cccc(C(F)(F)F)c2)C2=CN=NC2NC2=C1C(=O)CC1(CCCC1)C2 (some centres undefined) [US20250313563, Compound 801310]",100 to 1000,> 1670 nM
"CC1(C)CC(=O)C2=C(C1)NC1=C(CN=N1)C21CCN(S(=O)(=O)c2cccc(C(F)F)c2)CC1 [US20250313563, Compound 947264]",< 100,< 100 nM and 100 to 1000 nM
"CCC1(c2cccc(OCCOC)c2)C2=CN=NC2NC2=C1C(=O)CC(C)(C)C2 (centres undefined) [US20250313563, Compound 801446]",100 to 1000,> 1670 nM
"CC[C@@]1(c2cccc(-c3cn(C)nc3C)c2)C2=CN=NC2NC2=C1C(=O)CC(C)(C)C2 (some centres undefined) [US20250313563, Compound 945546]",< 100,< 100 nM and 100 to 1000 nM
"CC1(C)CC(=O)C2=C(C1)NC1=C(CN=N1)C21CN(S(=O)(=O)c2cccc(F)c2)C1 [US20250313563, Compound 918278]",< 100,< 100 nM
"CC[C@@]1(c2cccc(-c3cnn(Cc4cccc(C(F)(F)F)c4)c3)c2)C2=CN=NC2NC2=C1C(=O)NC(C)(C)C2 (some centres undefined) [US20250313563, Compound 951848]",< 100,100 to 1000 nM
"CC[C@]1(c2cccc(-c3cn(C)nc3C)c2)C2=CN=NC2NC2=C1C(=O)NC1(CCC1)C2 (some centres undefined) [US20250313563, Compound 950055]",< 100,< 100 nM and 100 to 1000 nM
"CCC1(c2cccc(N(CC3CCCC3)C(C)=O)c2)C2=CN=NC2NC2=C1C(=O)CC(C)(C)C2 (centres undefined) [US20250313563, Compound 912166]",< 100,< 100 nM
"CCC1(c2cccc(-c3ccnc4c3CCC4)c2)C2=C(CC(C)(C)NC2=O)NC2N=NC(C(F)(F)F)=C21 (centres undefined) [US20250313563, Compound 947862]",< 100,< 100 nM and 100 to 1000 nM
"CC[C@@]1(c2cccc(Br)c2)C2=CN=NC2NC2=C1C(=O)C[C@H](C)C2 (some centres undefined) [US20250313563, Compound 810487]",< 100,100 to 1000 nM
"CCC1(c2cccc(S(=O)(=O)C(C)C)c2)C2=CN=NC2NC2=C1C(=O)CC(C)(C)C2 (centres undefined) [US20250313563, Compound 912169]",< 100,< 100 nM
"CCC1(c2cccc(-c3ccnc4c3CCC4)c2)C2=CN=NC2NC2=C1C(=O)NC(C)(C)C2 (centres undefined) [US20250313563, Compound 947676]",< 100,100 to 1000 nM
"CC[C@@]1(c2cccc(-c3ccnn3-c3ccc(F)cc3)c2)C2=CN=NC2NC2=C1C(=O)NC(C)(C)C2 (some centres undefined) [US20250313563, Compound 950822]",100 to 1000,100 to 1000 nM
"CC[C@@]1(c2cccc(-c3cnn(Cc4ccc(OC)cc4)c3)c2)C2=CN=NC2NC2=C1C(=O)NC(C)(C)C2 (some centres undefined) [US20250313563, Compound 951838]",100 to 1000,1000 to 5000 nM
"CC[C@]1(c2cccc(-c3cnn(-c4ccccc4)c3F)c2)C2=CN=NC2NC2=C1C(=O)NC(C)(C)C2 (some centres undefined) [US20250313563, Compound 949519]",> 5000,> 5000 nM
"Cn1cc(CN2CC3(C2)C2=C(N=NC2)NC2=C3C(=O)CC(C)(C)C2)cn1 [US20250313563, Compound 929439]",> 5000,> 5000 nM
"CCC1(c2cccc(-c3nc(C)ncc3C)c2)C2=CN=NC2NC2=C1C(=O)CC(C)(C)C2 (centres undefined) [US20250313563, Compound 948091]",< 100,100 to 1000 nM
